# Laboratory results taken from paper PMC4599007, “The GH130 Family of Mannoside Phosphorylases Contains Glycoside Hydrolases That Target β-1,2-Mannosidic Linkages in Candida Mannan” (The Journal of Biological Chemistry, 2015).
# Target: T1, BT3780 (Bacteroides thetaiotaomicron, UniProt Q8A186)
# T1 construct: gene BT_3780; signal peptide residues 1-16; residues 17-384 built in crystal (C-terminal Pro printed as 383); monomer
# T1 sequence (Q8A186 17-383): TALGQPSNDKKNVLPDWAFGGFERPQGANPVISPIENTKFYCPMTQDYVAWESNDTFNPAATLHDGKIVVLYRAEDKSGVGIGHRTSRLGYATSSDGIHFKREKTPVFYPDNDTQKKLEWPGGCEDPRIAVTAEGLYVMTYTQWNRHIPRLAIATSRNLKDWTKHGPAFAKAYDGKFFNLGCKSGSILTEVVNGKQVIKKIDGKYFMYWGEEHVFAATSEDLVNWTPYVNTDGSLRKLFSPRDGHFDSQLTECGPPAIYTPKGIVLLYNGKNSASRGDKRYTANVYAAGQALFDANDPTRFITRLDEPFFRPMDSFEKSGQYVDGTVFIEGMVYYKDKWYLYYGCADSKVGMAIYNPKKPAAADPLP
# Test: X-ray crystal structure, […] Å
# Format: binding
# Conditions: 0.3 M mannose in crystallisation; bound in -1 and +1 subsites of the active site
compound,measurement,value
OC[C@H]1OC(O)[C@@H](O)[C@@H](O)[C@@H]1O (stereo partly shown) [mannose],"X-ray crystal structure, 1.35 Å",The pocket houses two mannose residues (the crystal structure of BT3780 was obtained in the presence
